Source: US20090069301A1, “Acridine and Quinoline Derivatives as Sirtuin Modulators” (Sirtris Pharmaceuticals, Inc., priority 2005, published 2009)

Legend:
SIRT1 = target: T1, SIRT1 (Homo sapiens, UniProt Q96EB6); test: Fluorescence polarization or mass spectrometry based assay to identify modulators of SIRT1 activity (p53-based peptide deacetylation); type: biochemical; settings: activation of SIRT1, Table 4; read-out: ED50 (the source's name);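 note: recombinant His-tagged human SIRT1 deacetylating p53-derived acetylated peptide, detected by fluorescence polarization after trypsin cleavage, signal inversely tracking deacetylase activity, compared against activity without test compound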
T1 sequence (Q96EB6 1-747): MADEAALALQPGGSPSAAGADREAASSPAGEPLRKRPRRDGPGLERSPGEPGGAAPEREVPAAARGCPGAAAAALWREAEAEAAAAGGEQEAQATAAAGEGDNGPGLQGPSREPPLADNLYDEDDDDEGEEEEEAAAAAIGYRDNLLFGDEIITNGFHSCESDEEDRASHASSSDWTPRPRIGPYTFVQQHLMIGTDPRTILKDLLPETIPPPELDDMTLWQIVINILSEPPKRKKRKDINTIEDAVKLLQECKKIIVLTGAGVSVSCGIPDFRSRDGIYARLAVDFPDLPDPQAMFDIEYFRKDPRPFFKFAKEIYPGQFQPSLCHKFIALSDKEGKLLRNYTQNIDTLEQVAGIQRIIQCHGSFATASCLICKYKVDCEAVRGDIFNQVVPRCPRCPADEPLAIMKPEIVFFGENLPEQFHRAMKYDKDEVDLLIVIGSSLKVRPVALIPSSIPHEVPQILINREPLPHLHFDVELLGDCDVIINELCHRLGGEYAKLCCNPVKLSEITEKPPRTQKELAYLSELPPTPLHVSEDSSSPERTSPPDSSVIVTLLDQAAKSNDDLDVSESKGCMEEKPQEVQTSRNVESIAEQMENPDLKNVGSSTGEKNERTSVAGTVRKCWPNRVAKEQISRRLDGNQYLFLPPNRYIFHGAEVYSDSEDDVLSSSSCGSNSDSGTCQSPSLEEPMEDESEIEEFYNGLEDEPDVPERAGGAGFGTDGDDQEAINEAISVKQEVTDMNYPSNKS

human SIRT3 = target: T2, human SIRT3 (Homo sapiens, UniProt Q9NTG7); test: Fluorescence polarization assay to identify modulators of SIRT3 activity (Histone H4-based peptide deacetylation); type: biochemical; settings: activation of SIRT3, Table 6; read-out: ED50 (the source's name)
T2 construct: corresponded to amino acid residues 102-399 of human SIRT3 with an N-terminal His-tag; His-tag (N); made in house; host or cells: E. coli
T2 sequence (Q9NTG7 102-399): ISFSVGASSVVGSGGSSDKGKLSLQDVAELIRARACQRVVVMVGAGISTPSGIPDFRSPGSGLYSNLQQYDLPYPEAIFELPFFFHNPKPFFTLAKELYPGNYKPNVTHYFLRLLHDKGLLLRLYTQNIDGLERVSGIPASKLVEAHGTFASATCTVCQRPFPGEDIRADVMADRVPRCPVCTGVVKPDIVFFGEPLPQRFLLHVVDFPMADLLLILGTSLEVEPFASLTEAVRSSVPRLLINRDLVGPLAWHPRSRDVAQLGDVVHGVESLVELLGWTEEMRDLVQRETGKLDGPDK
Text: A fluorescence polarization assay was used to identify modulators of SIRT3 activity. The same assay may be used to identify modulators of any sirtuin protein. The assay utilizes a peptide substrate based on a fragment of Histone H4, a known sirtuin deacetylation target. The substrate contains a peptide having 14 amino acid residues as follows: Biotin-GASSHSK(Ac)VLK(MR121) (SEQ ID NO: 3) wherein K(Ac) is an acetylated lysine residue. The peptide is labeled with the fluorophore MR121 (excitation 635 nm/emission 680 nm) at the C-terminus and biotin at the N-terminus.
The peptide substrate is exposed to a sirtuin protein in the presence of NAD^+ to allow deacetylation of the substrate and render it sensitive to cleavage by trypsin. […] The fluorescence polarization signal observed for the full length peptide substrate bound to streptavidin is higher than the fluorescence polarization signal observed for the released MR121 C-terminal fragment. Therefore, the fluorescence polarization obtained is inversely proportional to the level of deacetylation (e.g., the signal is inversely proportional to the activity of the sirtuin protein). Results are read on a microplate fluorescence polarization reader (Molecular Devices Spectramax MD) with appropriate excitation and emission filters. […]

For `O=C(Nc1ccccc1N1CCOCC1)c1cc(-c2ccco2)nc2ccccc12` [Compound 8], the EC50 (SIRT1) was under 50 µM and the EC50 (human SIRT3) was under 50 µM.
